Measurements reported in patent US6777408B1, “Pyrido-thieno-diazepines method for the production thereof and pharmaceutical compositions containing said pyrido-thieno-diazepines” (Societe de Conseils de Recherches et d'Applications …, priority 1999, dated 2004).

| melting point | SMILES |
| --- | --- |
| 152 °C | COc1ccc(NC(=S)N2CCc3c(sc4c3C(c3ccccc3Cl)=NCC(=S)N4CCc3ccccc3)C2)c([N+](=O)[O-])c1 |
| 90 to 95 °C | COc1ccc(NC(=S)N2CCc3c(sc4c3C(c3ccccc3Cl)=NC(OC(=O)CCCCCCN)C(=O)N4CCc3ccccc3)C2)c([N+](=O)[O-])c1 (stereo not drawn) [Example 8, 3-(7-amino-1-oxo-heptyloxy)-5-(2-chlorophenyl)-1,2,3,6,7,9-hexahydro-N-(4-methoxy-2-nitrophenyl)-2-oxo-1-(2-phenylethyl)-8H-pyrido[4′,3′:4,5]thieno[2,3-e]-1,4-diazepine-8-carbothioamide] |
| 128 to 130 °C | O=C1CNC(c2ccccc2Cl)c2c(sc3c2CCNC3)N1CCc1ccccc1 (stereo not drawn) [Example 13, 5-(2-chlorophenyl)-1,3,4,5,6,7,8,9-octahydro-1-(2-phenylethyl)-2H-pyrido[4′,3′:4,5]thieno[2,3-e]-1,4-diazepine-2-one] |
